Marks after values point to notes of the source that are not given here.
Test system: male rats
Assay: Plasma metabolite profiling (GC-MS, LC-MS, SPE-LC-MS) in male rats dosed once daily over 28 days (OECD 407)
Type: in vivo, rat
Conditions: high dose; for Mannose: Table 15c
Method in brief: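 Polar and lipid fractions profiled by GC-MS and LC-MS/MRM, steroids by online SPE-LC-MS; pool-normalized data compared to controls by Welch test as treatment ratios and p-values.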

In the case of `C[C@]12C=CC3=C4CCC(=O)C=C4CCC3C1CC[C@@H]2O` (stereo partly drawn) [Trenbolone], the Mannose (m7, male rats) was 1.35 *, the “3,4-Dihydroxyphenylacetic acid (DOPAC)” value (m7, male rats, Table 16) was 1.08 and the “3,4-Dihydroxyphenylglycol (DOPEG)” value (m7, male rats, Table 16) was 1.12. For the same compound, the Androstenedione (m7, male rats, Table 16) was 0.09 *, the Citrate (m7, male rats, Table 16) was 0.89 * and the “Glycerol, polar fraction” value (m7, male rats, Table 16) was 0.66 *. The Histamine (m7, male rats, Table 16) was 1.35, the Ketoleucine (m7, male rats, Table 16) was 0.93 and the Lactate (m7, male rats, Table 16) was 0.68 *. The Metanephrine (m7, male rats, Table 16) was 0.86, the Pantothenic acid (m7, male rats, Table 16) was 0.65 * and the “Phosphatidylcholine (C18:1,C18:2)” value (m7, male rats, Table 16) was 0.76 *. The “Phosphatidylcholine No 04” value (m7, male rats, Table 16) was 0.44 *, the “TAG (C18:1,C18:2)” value (m7, male rats, Table 16) was 0.77 * and the Testosterone (m7, male rats, Table 16) was 0.1 *. For the same compound, the Tyrosine (m7, male rats, Table 16) was 0.93 *, the “3,4-Dihydroxyphenylacetic acid (DOPAC)” value (m7, male rats, Table 15d) was 1.08 and the 18-Hydroxy-11-deoxycorticosterone (m7, male rats, Table 15d) was 0.4. For the same compound, the “Glycerol phosphate, lipid fraction” value (m7, male rats, Table 15d) was 0.26 *, the “Homovanillic acid (HVA)” value (m7, male rats, Table 15d) was 0.6 * and the Kynurenic acid (m7, male rats, Table 15d) was 0.66 *. The “Lysophosphatidylcholine (C18:1)” value (m7, male rats, Table 15d) was 0.89 *, the “Lysophosphatidylethanolamine (C22:5)” value (m7, male rats, Table 15d) was 0.75 * and the “Phosphate, lipid fraction” value (m7, male rats, Table 15d) was 0.47 *. The “Phosphatidylcholine (C18:0,C18:1)” value (m7, male rats, Table 15d) was 0.62 *, the “Sphingomyelin (d18:1, C16:0)” value (m7, male rats, Table 15d) was 0.23 * and the “Sphingomyelin (d18:1,C23:0)” value (m7, male rats, Table 15d) was 0.25 *. The “Sphingomyelin (d18:1,C24:0)” value (m7, male rats, Table 15d) was 0.37 *, the “Sphingomyelin (d18:2,C18:0)” value (m7, male rats, Table 15d) was 0.24 * and the “TAG No 02” value (m7, male rats, Table 15d) was 0.57 *. The “myo-Inositol, lipid fraction” value (m7, male rats, Table 15d) was 0.24 *, the Cholesterol (m7, Table 14b) was 0.22 and the “Choline plasmalogen No 02” value (m7, Table 14b) was 0.44. For the same compound, the “Lignoceric acid (C24:0)” value (m7, Table 14b) was 0.14, the “Sphingomyelin (d18:1, C16:0)” value (m7, Table 14b) was 0.23 and the “Sphingomyelin (d18:2, C16:0)” value (m7, Table 14b) was 0.22. For the same compound, the “erythro-Sphingosine (d18:1)” value (m7, Table 14b) was 0.1, the Mannose (m14, male rats) was 1.4 * and the “3,4-Dihydroxyphenylacetic acid (DOPAC)” value (m14, male rats, Table 16) was 0.75 *. For the same compound, the “3,4-Dihydroxyphenylglycol (DOPEG)” value (m14, male rats, Table 16) was 0.86 *, the Androstenedione (m14, male rats, Table 16) was 0.02 * and the Citrate (m14, male rats, Table 16) was 0.89 *. The “Glycerol, polar fraction” value (m14, male rats, Table 16) was 0.51 *, the Histamine (m14, male rats, Table 16) was 1.6 and the Ketoleucine (m14, male rats, Table 16) was 0.85 *. The Lactate (m14, male rats, Table 16) was 0.94, the Metanephrine (m14, male rats, Table 16) was 0.48 * and the Pantothenic acid (m14, male rats, Table 16) was 0.82 *. The “Phosphatidylcholine (C18:1,C18:2)” value (m14, male rats, Table 16) was 0.74 *, the “Phosphatidylcholine No 04” value (m14, male rats, Table 16) was 0.42 * and the “TAG (C18:1,C18:2)” value (m14, male rats, Table 16) was 0.45 *. The Testosterone (m14, male rats, Table 16) was 0.06 *, the Tyrosine (m14, male rats, Table 16) was 1 and the “3,4-Dihydroxyphenylacetic acid (DOPAC)” value (m14, male rats, Table 15d) was 0.75 *. The 18-Hydroxy-11-deoxycorticosterone (m14, male rats, Table 15d) was 0.47 *, the “Glycerol phosphate, lipid fraction” value (m14, male rats, Table 15d) was 0.24 * and the “Homovanillic acid (HVA)” value (m14, male rats, Table 15d) was 0.5 *. For the same compound, the Kynurenic acid (m14, male rats, Table 15d) was 0.8 *, the “Lysophosphatidylcholine (C18:1)” value (m14, male rats, Table 15d) was 0.82 * and the “Lysophosphatidylethanolamine (C22:5)” value (m14, male rats, Table 15d) was 0.83 *. For the same compound, the “Phosphate, lipid fraction” value (m14, male rats, Table 15d) was 0.44 *, the “Phosphatidylcholine (C18:0,C18:1)” value (m14, male rats, Table 15d) was 0.63 * and the “Sphingomyelin (d18:1, C16:0)” value (m14, male rats, Table 15d) was 0.22 *. For the same compound, the “Sphingomyelin (d18:1,C23:0)” value (m14, male rats, Table 15d) was 0.33 *, the “Sphingomyelin (d18:1,C24:0)” value (m14, male rats, Table 15d) was 0.41 * and the “Sphingomyelin (d18:2,C18:0)” value (m14, male rats, Table 15d) was 0.26 *. For the same compound, the “TAG No 02” value (m14, male rats, Table 15d) was 0.74 *, the “myo-Inositol, lipid fraction” value (m14, male rats, Table 15d) was 0.29 * and the Cholesterol (m14, Table 14b) was 0.22. For the same compound, the “Choline plasmalogen No 02” value (m14, Table 14b) was 0.52, the “Lignoceric acid (C24:0)” value (m14, Table 14b) was 0.17 and the “Sphingomyelin (d18:1, C16:0)” value (m14, Table 14b) was 0.22. For the same compound, the “Sphingomyelin (d18:2, C16:0)” value (m14, Table 14b) was 0.18, the “erythro-Sphingosine (d18:1)” value (m14, Table 14b) was 0.06 and the Mannose (m28, male rats) was 1.31 *. For the same compound, the “3,4-Dihydroxyphenylacetic acid (DOPAC)” value (m28, male rats, Table 16) was 0.54 *, the “3,4-Dihydroxyphenylglycol (DOPEG)” value (m28, male rats, Table 16) was 0.72 * and the Androstenedione (m28, male rats, Table 16) was 0.02 *. The Citrate (m28, male rats, Table 16) was 1.03, the “Glycerol, polar fraction” value (m28, male rats, Table 16) was 0.61 * and the Histamine (m28, male rats, Table 16) was 0.65 *. For the same compound, the Ketoleucine (m28, male rats, Table 16) was 0.72 *, the Lactate (m28, male rats, Table 16) was 0.76 * and the Metanephrine (m28, male rats, Table 16) was 0.66 *. The Pantothenic acid (m28, male rats, Table 16) was 0.77 *, the “Phosphatidylcholine (C18:1,C18:2)” value (m28, male rats, Table 16) was 0.96 and the “Phosphatidylcholine No 04” value (m28, male rats, Table 16) was 0.81 *. For the same compound, the “TAG (C18:1,C18:2)” value (m28, male rats, Table 16) was 1.26, the Testosterone (m28, male rats, Table 16) was 0.06 * and the Tyrosine (m28, male rats, Table 16) was 0.82 *. For the same compound, the “3,4-Dihydroxyphenylacetic acid (DOPAC)” value (m28, male rats, Table 15d) was 0.54 *, the 18-Hydroxy-11-deoxycorticosterone (m28, male rats, Table 15d) was 0.52 * and the “Glycerol phosphate, lipid fraction” value (m28, male rats, Table 15d) was 0.61 *. The “Homovanillic acid (HVA)” value (m28, male rats, Table 15d) was 0.49 *, the Kynurenic acid (m28, male rats, Table 15d) was 0.72 * and the “Lysophosphatidylcholine (C18:1)” value (m28, male rats, Table 15d) was 0.92. The “Lysophosphatidylethanolamine (C22:5)” value (m28, male rats, Table 15d) was 0.8, the “Phosphate, lipid fraction” value (m28, male rats, Table 15d) was 0.66 * and the “Phosphatidylcholine (C18:0,C18:1)” value (m28, male rats, Table 15d) was 0.87. For the same compound, the “Sphingomyelin (d18:1, C16:0)” value (m28, male rats, Table 15d) was 0.35 *, the “Sphingomyelin (d18:1,C23:0)” value (m28, male rats, Table 15d) was 0.55 * and the “Sphingomyelin (d18:1,C24:0)” value (m28, male rats, Table 15d) was 0.54 *. For the same compound, the “Sphingomyelin (d18:2,C18:0)” value (m28, male rats, Table 15d) was 0.35 *, the “TAG No 02” value (m28, male rats, Table 15d) was 0.51 * and the “myo-Inositol, lipid fraction” value (m28, male rats, Table 15d) was 0.54 *. For the same compound, the Cholesterol (m28, Table 14b) was 0.4, the “Choline plasmalogen No 02” value (m28, Table 14b) was 0.55 and the “Lignoceric acid (C24:0)” value (m28, Table 14b) was 0.35. The “Sphingomyelin (d18:1, C16:0)” value (m28, Table 14b) was 0.35, the “Sphingomyelin (d18:2, C16:0)” value (m28, Table 14b) was 0.28 and the “erythro-Sphingosine (d18:1)” value (m28, Table 14b) was 0.21.

Source: patent publication US20150010928A1, “MEANS AND METHODS FOR ASSESSING AN ENDOCRINE DISEASE OR DISORDER” (priority 2012, published 2015)
